Reference: paper PMC6019362, “^99mTc标记T7肽及其在裸鼠非小细胞肺癌模型体内的生物分布研究” (Chinese Journal of Lung Cancer, 2014)

Columns and labels:
[1] = tested on: 荷人NCI-H157裸鼠肺癌模型; set-up: species or system BALB/c裸鼠; details: in vivo
Procedure: 将NCI-H157细胞株培养至对数生长期，弃去培养液，PBS清洗2次，0.25%胰酶消化，收集细胞，离心，生理盐水重悬并计数。无菌条件下，每只裸鼠右后肢背部皮下注射6×10^6个/200 μL的NCI-H157细胞悬液。裸鼠置于天津市实验动物中心SPF级动物房饲养，当肿瘤长径达0.6 cm-1.0 cm时进行实验(约30 d)。 将荷瘤裸鼠随机分成5组(0.5 h、1 h、2 h、4 h和8 h)，每组5只，分别尾静脉注射3.7 MBq/100 μL的^99mTc-T7溶液，注射后分别在0.5 h、1 h、2 h、4 h和8 h股动脉放血处死，分别取心、肝、脾、肺、肾、肌肉、骨骼、脑、肿瘤、小肠、胃，称湿重，测量γ计数，计算各脏器的每克组织注射剂量百分比(%ID/g)并分析肿瘤/非肿瘤(T/NT)比值。

[2] = type: in vitro ADME, human
Procedure: 薄层色谱法检测标记率及放化纯度，以硅胶板为固定相，丙酮作为展开系统，毛细管点样，放射性γ计数器进行检测。稳定性检测:取500 μL的^99mTc-T7溶液分别加入1 mL的生理盐水和1 mL人血清中，37 ℃孵育8 h，用薄层色谱法检测放化纯度。

肿瘤/肌肉放射性比值 (T/NT) [1]: > 5 | 血脑屏障通过 (blood-brain barrier passage) [1]: 不能正常通过血脑屏障 | 8 h血放射性摄取值 (%ID/g) 相对于0.5 h ([1]; mouse, iv, 3.7 MBq, 8 h): 26% | 放化纯 (radiochemical purity) after incubation [2]: > 90%
Sequence: TMPFLFCNVNDVCNFASRNDYSKKK [^99mTc-T7, 羰基锝法标记的肿瘤抑素T7肽, ^99mTc(CO)3^+ labelled 25-mer, integrin αvβ3 targeted imaging probe]
